Here are results for three compounds from patent US20230271953A1, “Novel compounds for treatment of diseases related to DUX4 expression” (Facio Intellectual Property B.V., priority 2019, published 2023).

This assay deals with DUX4. As to the kind of experiment: DUX4 repression assay in primary FSHD cells (protocol of Example 2 of WO2019/115711). Particulars: incubated 72 hours, Table 2.3 (additional results), binned. The format is cell-based, human. As for the experimental part: The DUX4 repression of compounds of general formula (I) was assayed following a known protocol (the protocol of Example 2 of WO2019/115711). Several compounds were incubated with primary FSHD cells for 72 hours. Results are shown in Table 2.2, showing DUX4 Count % inhibition.

SMILES strings stand for the structures.

`OC1CN(c2ccc3nc(-c4ccc(F)cc4)n(-c4ccncc4)c3n2)C1` [Compound 98, 1-[2-(4-fluorophenyl)-3-(pyridin-4-yl)-3H-imidazo[4,5-b]pyridin-5-yl]azetidin-3-ol]: the “DUX4 Count % inhibition” value is listed as “fall outside of the bins”. For the compound `Fc1ccc(-c2nc3ccc(N4CC(N5CCCC5)C4)nc3n2-c2ccncc2)cc1` [Compound 106, 4-[2-(4-fluorophenyl)-5-[3-(pyrrolidin-1-yl)azetidin-1-yl]-3H-imidazo[4,5-b]pyridin-3-yl]pyridine], the “DUX4 Count % inhibition” value was “fall outside of the bins”.

`C[C@@H]1CNCCN1c1ccc2nc(-c3cccc(C#N)c3)n(-c3ccncc3)c2n1` [Compound 188-R, 3-{5-[(2R)-2-methylpiperazin-1-yl]-3-(pyridin-4-yl)-3H-imidazo[4,5-b]pyridin-2-yl}benzonitrile]: the “DUX4 Count % inhibition” value is “fall outside of the bins”.
